Article PMC8160793, “Potent Antimicrobial and Antibiofilm Activities of Feleucin-K3 Analogs Modified by α-(4-Pentenyl)-Ala against Multidrug-Resistant Bacteria” (Biomolecules, 2021)
Values after ≈ are worked out from the molar mass of the structure shown. Blank lines part the entries; values can stand above or below the compound they belong to. Square brackets hold non-standard residues; d marks the D form. Peptide text beside a SMILES is read from it. ξ: configuration not given here. ξαMeGly(pent-4-enyl) = C=CCCCC(C)(N)C(=O)O

Assays:
S. aureus = experiment: Resistance development assay, sequential passaging; format: cell-based, Staphylococcus aureus; conditions: serial passage at sub-MIC
Protocol: (§1) Serial passage and MIC determination were used to explore whether the bacteria developed drug resistance. On the first day, the MICs of the peptides were determined as described above. The next day, the bacterial suspension of sub-MIC concentration was cultivated to the mid-log phase. The MICs of the peptides were detected again, and this process was repeated for 20 days. The MICs of the antibiotics, including amoxicillin (AML), ceftazidime (CAZ) and imipenem, were also determined as controls.

MRSA = tested on: MRSA; parameters: method as in PMID 32590058; conditions: cited from earlier work
P. aeruginosa = experiment: Resistance development assay, sequential passaging; format: cell-based, Pseudomonas aeruginosa; conditions: serial passage at sub-MIC, 20 passages
Protocol: as §1

E. coli = experiment: Resistance development assay, sequential passaging; format: cell-based; conditions: serial passage at sub-MIC, 20 passages
Protocol: as §1

E. coli ATCC 25922 = format: cell-based; conditions: ATCC 25922, 18 h
Protocol: (§2) The minimum inhibitory concentration (MIC) of the Feleucin-K3 analogs was tested by the broth microdilution method. Sensitive bacteria and drug-resistant bacteria were diluted to 1 × 10^6 CFU/mL, according to the McFarland standards. Bacterial suspension and peptide solutions (8–128 μg/mL) were incubated at 37 °C for 18 h. The minimum concentration without obvious bacterial growth was the MIC of the peptides. The stability of the analogs in a physiological salt environment was also investigated. In brief, salt powder (450-mM NaCl) was dissolved in deionized water, and the following investigational steps were the same as those described before. The above steps were repeated several times, until the same value was obtained three times.

MRSA 113 = format: cell-based, Staphylococcus aureus; conditions: 113, 18 h
Protocol: as §2

MRSA 23 = format: cell-based, Staphylococcus aureus; conditions: 23, 18 h
Protocol: as §2

MRSA 48 = format: cell-based, Staphylococcus aureus; conditions: 48, 18 h
Protocol: as §2

MRSA 51 = format: cell-based, Staphylococcus aureus; conditions: 51, 18 h
Protocol: as §2

MRSA 52 = format: cell-based, Staphylococcus aureus; conditions: 52, 18 h
Protocol: as §2

MRSA 54 = format: cell-based, Staphylococcus aureus; conditions: 54, 18 h
Protocol: as §2

MRSA 71 = format: cell-based, Staphylococcus aureus; conditions: 71, 18 h
Protocol: as §2

MRSA 74 = format: cell-based, Staphylococcus aureus; conditions: 74, 18 h
Protocol: as §2

MRSA 75 = format: cell-based, Staphylococcus aureus; conditions: 75, 18 h
Protocol: as §2

MRSA 936 = format: cell-based, Staphylococcus aureus; conditions: 936, 18 h
Protocol: as §2

MRSA ATCC 33591 = format: cell-based, Staphylococcus aureus; conditions: ATCC 33591, 18 h
Protocol: as §2

S. aureus 725 = format: cell-based, Staphylococcus aureus; conditions: 725, 18 h
Protocol: as §2

S. aureus 794 = format: cell-based, Staphylococcus aureus; conditions: 794, 18 h
Protocol: as §2

S. aureus ATCC 25923 = format: cell-based, Staphylococcus aureus; conditions: ATCC 25923, 18 h
Protocol: as §2

P. aeruginosa ATCC 27853 = format: cell-based, Pseudomonas aeruginosa; conditions: ATCC 27853, 18 h
Protocol: as §2

A. baumannii 51243 = format: cell-based, Acinetobacter baumannii; conditions: 51243, 18 h
Protocol: as §2

A. baumannii 5444 = format: cell-based, Acinetobacter baumannii; conditions: 5444, 18 h
Protocol: as §2

A. baumannii 822144 = format: cell-based, Acinetobacter baumannii; conditions: 822144, 18 h
Protocol: as §2

A. baumannii 8309 = format: cell-based, Acinetobacter baumannii; conditions: 8309, 18 h
Protocol: as §2

A. baumannii 91105 = format: cell-based, Acinetobacter baumannii; conditions: 91105, 18 h
Protocol: as §2

A. baumannii 91152 = format: cell-based, Acinetobacter baumannii; conditions: 91152, 18 h
Protocol: as §2

A. baumannii 91199 = format: cell-based, Acinetobacter baumannii; conditions: 91199, 18 h
Protocol: as §2

A. baumannii 91810 = format: cell-based, Acinetobacter baumannii; conditions: 91810, 18 h
Protocol: as §2

A. baumannii 91869 = format: cell-based, Acinetobacter baumannii; conditions: 91869, 18 h
Protocol: as §2

A. baumannii 91944 = format: cell-based, Acinetobacter baumannii; conditions: 91944, 18 h
Protocol: as §2

A. baumannii 9234 = format: cell-based, Acinetobacter baumannii; conditions: 9234, 18 h
Protocol: as §2

A. baumannii 92359 = format: cell-based, Acinetobacter baumannii; conditions: 92359, 18 h
Protocol: as §2

A. baumannii 9236 = format: cell-based, Acinetobacter baumannii; conditions: 9236, 18 h
Protocol: as §2

A. baumannii 9331 = format: cell-based, Acinetobacter baumannii; conditions: 9331, 18 h
Protocol: as §2

A. baumannii 9336 = format: cell-based, Acinetobacter baumannii; conditions: 9336, 18 h
Protocol: as §2

A. baumannii 97830 = format: cell-based, Acinetobacter baumannii; conditions: 97830, 18 h
Protocol: as §2

A. baumannii 98110 = format: cell-based, Acinetobacter baumannii; conditions: 98110, 18 h
Protocol: as §2

A. baumannii 9828 = format: cell-based, Acinetobacter baumannii; conditions: 9828, 18 h
Protocol: as §2

A. baumannii 9840 = format: cell-based, Acinetobacter baumannii; conditions: 9840, 18 h
Protocol: as §2

A. baumannii 9896 = format: cell-based, Acinetobacter baumannii; conditions: 9896, 18 h
Protocol: as §2

A. baumannii ATCC 19606 = format: cell-based, Acinetobacter baumannii; conditions: ATCC 19606, 18 h
Protocol: as §2

SMILES: CC1(C)S[C@@H]2[C@H](NC(=O)[C@H](N)c3ccc(O)cc3)C(=O)N2[C@H]1C(=O)O [AML, amoxicillin]
maximum fold increase of MIC, S. aureus (S. aureus; 20 passages): ≤ 1024 fold
passage at which resistant mutants were produced (S. aureus; strain taken as S. aureus): 5 passage
MIC against MRSA (MRSA): up to 128 µg/mL

SMILES: CC(C)(O/N=C(\C(=O)N[C@@H]1C(=O)N2C(C(=O)[O-])=C(C[n+]3ccccc3)CS[C@H]12)c1csc(N)n1)C(=O)O [CAZ, ceftazidime]
fold increase of MIC, P. aeruginosa (P. aeruginosa): 32 fold
fold increase of MIC, E. coli (E. coli): 16 fold

MIC, E. coli ATCC 25922 (E. coli ATCC 25922): 8 mg/L (≈ 7.01 µM)
MIC, MRSA 113 (MRSA 113): 4 mg/L (≈ 3.51 µM)
MIC, MRSA 23 (MRSA 23): 4 mg/L (≈ 3.51 µM)
MIC, MRSA 48 (MRSA 48): 4 mg/L (≈ 3.51 µM)
MIC, MRSA 51 (MRSA 51): 4 mg/L (≈ 3.51 µM)
MIC, MRSA 52 (MRSA 52): 4 mg/L (≈ 3.51 µM)
MIC, MRSA 54 (MRSA 54): 4 mg/L (≈ 3.51 µM)
MIC, MRSA 71 (MRSA 71): 4 mg/L (≈ 3.51 µM)
MIC, MRSA 74 (MRSA 74): 8 mg/L (≈ 7.01 µM)
MIC, MRSA 75 (MRSA 75): 4 mg/L (≈ 3.51 µM)
MIC, MRSA 936 (MRSA 936): 4 mg/L (≈ 3.51 µM)
MIC, MRSA ATCC 33591 (MRSA ATCC 33591): 4 mg/L (≈ 3.51 µM)
MIC, S. aureus 725 (S. aureus 725): 4 mg/L (≈ 3.51 µM)
MIC, S. aureus 794 (S. aureus 794): 8 mg/L (≈ 7.01 µM)
MIC, S. aureus ATCC 25923 (S. aureus ATCC 25923): 4 mg/L (≈ 3.51 µM)
MIC, P. aeruginosa ATCC 27853 (P. aeruginosa ATCC 27853): 8 mg/L (≈ 7.01 µM)
MIC, A. baumannii 51243 (A. baumannii 51243): 8 mg/L (≈ 7.01 µM)
MIC, A. baumannii 5444 (A. baumannii 5444): 8 mg/L (≈ 7.01 µM)
MIC, A. baumannii 822144 (A. baumannii 822144): 8 mg/L (≈ 7.01 µM)
MIC, A. baumannii 8309 (A. baumannii 8309): 8 mg/L (≈ 7.01 µM)
MIC, A. baumannii 91105 (A. baumannii 91105): 8 mg/L (≈ 7.01 µM)
MIC, A. baumannii 91152 (A. baumannii 91152): 8 mg/L (≈ 7.01 µM)
MIC, A. baumannii 91199 (A. baumannii 91199): 8 mg/L (≈ 7.01 µM)
MIC, A. baumannii 91810 (A. baumannii 91810): 8 mg/L (≈ 7.01 µM)
MIC, A. baumannii 91869 (A. baumannii 91869): 8 mg/L (≈ 7.01 µM)
MIC, A. baumannii 91944 (A. baumannii 91944): 8 mg/L (≈ 7.01 µM)
MIC, A. baumannii 9234 (A. baumannii 9234): 8 mg/L (≈ 7.01 µM)
MIC, A. baumannii 92359 (A. baumannii 92359): 4 mg/L (≈ 3.51 µM)
MIC, A. baumannii 9236 (A. baumannii 9236): 8 mg/L (≈ 7.01 µM)
MIC, A. baumannii 9331 (A. baumannii 9331): 8 mg/L (≈ 7.01 µM)
MIC, A. baumannii 9336 (A. baumannii 9336): 8 mg/L (≈ 7.01 µM)
MIC, A. baumannii 97830 (A. baumannii 97830): 8 mg/L (≈ 7.01 µM)
MIC, A. baumannii 98110 (A. baumannii 98110): 8 mg/L (≈ 7.01 µM)
MIC, A. baumannii 9828 (A. baumannii 9828): 8 mg/L (≈ 7.01 µM)
MIC, A. baumannii 9840 (A. baumannii 9840): 8 mg/L (≈ 7.01 µM)
MIC, A. baumannii 9896 (A. baumannii 9896): 8 mg/L (≈ 7.01 µM)
MIC, A. baumannii ATCC 19606 (A. baumannii ATCC 19606): 8 mg/L (≈ 7.01 µM)
SMILES: C=CCCCC(C)(NC(=O)[C@H](CCCCN)NC(=O)[C@H](CCCCN)NC(=O)[C@H](CC(C)C)NC(=O)[C@H](CC(C)C)NC(=O)[C@H](CCCCN)NC(=O)[C@H](CC(C)C)NC(=O)[C@@H](N)Cc1ccccc1)C(=O)N[C@@H](CC(C)C)C(N)=O (stereo partly drawn) [Feleucin-K69] (H-FLKLLKK[ξαMeGly(pent-4-enyl)]L-NH2)
